Experimental data from patent publication US20110275583A1, “Synergistic active compound combinations” (priority 2010, published 2011).
Read-outs that look alike come from different tables or passages of the source.

Assays:
Format in all cases: in vivo
[1] = test system: armyworm (Spodoptera frugiperda); experiment: Spodoptera frugiperda larvae test (sprayed cabbage leaves); conditions: single active compound
Text: (§1) The expected action for a given combination of two active compounds can be calculated as follows, using the formula of S. R. Colby, Weeds 15 (1967), 20-22: • If • X is the kill rate, expressed as % of the untreated control, when employing active compound A at an application rate of m g/ha or in a concentration of in ppm, • Y is the kill rate, expressed as % of the untreated control, when employing active compound B at an application rate of n g/ha or in a concentration of n ppm and • E is the kill rate, expressed as % of the untreated control, when employing active compounds A and B at application rates of m and n g/ha or in a concentration of m and n ppm, • then
(§2) If the actual kill rate exceeds the calculated value, the action of the combination is superadditive, i.e. a synergistic effect is present. In this case, the actually observed kill rate must exceed the value calculated using the above formula for the expected kill rate (E).
(§3) Solvent: 78 parts by weight of acetone • • 1.5 parts by weight of dimethylformamide
(§4) Emulsifier: 0.5 part by weight of alkylaryl polyglycol ether
(§5) To produce a suitable preparation of active compound, 1 part by weight of active compound is mixed with the stated amounts of solvent and emulsifier, and the concentrate is diluted with emulsifier-containing water to the desired concentration.
Cabbage leaves (Brassica oleracea) are treated by being sprayed with the preparation of active compound of the desired concentration and are populated with the armyworm (Spodoptera frugiperda) while the leaves are still moist.
After the desired period of time, the kill in % is determined. 100% means that all caterpillars have been killed; 0% means that none of the caterpillars have been killed. The kill rates determined are entered, into Colby's formula.

[2] = test system: greenhouse red spider mite (Tetranychus urticae); experiment: Tetranychus test, OP-resistant/spray treatment (bean leaf discs); conditions: single active compound
Text: as §1, §2, §3, §4, §5
Discs of bean leaves (Phaseolus vulgaris) which are infested by all stages of the greenhouse red spider mite (Tetranychus urticae) are sprayed with an active compound preparation of the desired concentration.
After the desired period of time, the effect in % is determined. 100% means that all of the spider mites have been killed; 0% means that none of the spider mites have been killed.

[3] = test system: green peach aphid (Myzus persicae); experiment: Myzus persicae test (spray treatment of infested cabbage leaves)
Text: as §1, §2, §3, §4, §5
Cabbage leaves (Brassica oleracea) which are heavily infested by the green peach aphid (Myzus persicae) are treated by spraying with the active compound preparation of the desired concentration.
After the desired period of time, the kill in % is determined. 100% means that all of the aphids have been killed; 0% means that none of the aphids have been killed. The kill rates determined are entered into Colby's formula.

[4] = test system: larvae of the mustard beetle (Phaedon cochleariae); experiment: Phaedon cochleariae larvae test (sprayed cabbage leaves); conditions: single active compound
Text: as §1, §2, §3, §4, §5
Cabbage leaves (Brassica oleracea) are treated by spraying with the active compound preparation of the desired concentration and populated with larvae of the mustard beetle (Phaedon cochleariae) while the leaves are still moist.
After the desired period of time, the kill in % is determined. 100% means that all beetle larvae have been killed; 0% means that none of the beetle larvae have been killed. The kill rates determined are entered into Colby's formula.

[5] = Spodoptera frugiperda, 144 h, 4 g/ha, 6 d, read-out: Kill in % after 6 d
[6] = Tetranychus urticae, foliar, 144 h, 6 d, read-out: Kill in % after 6 d
[7] = Spodoptera frugiperda, 144 h, 6 d, read-out: Kill in % after 6 d
[8] = Tetranychus urticae, foliar, 48 h, 100 g/ha, 2 d, read-out: Kill in % after 2 d
[9] = Phaedon cochleariae, 48 h, 0.8 g/ha, 2 d, read-out: Kill in % after 2 d
[10] = Myzus persicae, 24 h, 0.8 g/ha, after 1 d, read-out: Kill in % after 1d
[11] = Tetranychus urticae, foliar, 48 h, 2 d, read-out: Kill in % after 2 d
[12] = Phaedon cochleariae, 144 h, 0.8 g/ha, 6 d, read-out: Kill in % after 6 d
[13] = Spodoptera frugiperda, 144 h, 0.16 g/ha, 6 d, read-out: Kill in % after 6 d
[14] = Myzus persicae, 24 h, after 1 d, read-out: Kill in % after 1d
[15] = Tetranychus urticae, foliar, 144 h, 100 g/ha, 6 d, read-out: Kill in % after 6 d
[16] = Phaedon cochleariae, 48 h, 2 d, read-out: Kill in % after 2 d
[17] = Phaedon cochleariae, 144 h, 6 d, read-out: Kill in % after 6 d
[18] = Spodoptera frugiperda, 48 h, 2 d, read-out: Kill in % after 2 d
[19] = Myzus persicae, 144 h, single active compound, 6 d, read-out: Kill in % after 6 d

FC(F)(F)c1ccc(OCCCOc2c(Cl)cc(OCC=C(Cl)Cl)cc2Cl)nc1 [pyridalyl] gave a pest or weed control at 4 g/ha [1, 5] of 17%, a pest or weed control at 20 g/ha [2, 6] of 10% and a pest or weed control at 0.8 g/ha ([3]; Myzus persicae, 144 h, 0.8 g/ha, single active compound, 6 d, read-out: Kill in % after 6 d) of 0%.

With CNC(=O)O/N=C/C(C)(C)SC [aldicarb] the pest or weed control at 100 g/ha [1, 7] was 0% and the pest or weed control at 100 g/ha [2, 8] was 0%.

Compound CNC(=O)c1cc(Cl)cc(C)c1NC(=O)c1cc(Br)nn1-c1ncccc1Cl [chloranthraniliprole, chlorantraniliprole] has a pest or weed control at 0.8 g/ha [4, 9] of 67%, a pest or weed control at 4 g/ha ([1]; Spodoptera frugiperda, 48 h, 4 g/ha, 2 d, read-out: Kill in % after 2 d) of 67% and a pest or weed control at 0.8 g/ha [3, 10] of 0%.

In the case of CNC(=O)c1cc(C#N)cc(C)c1NC(=O)c1cc(Br)nn1-c1ncccc1Cl [Cyazypyr, cyantraniliprole], the pest or weed control at 0.8 g/ha [4, 9] is reported as 50%, the pest or weed control at 0.16 g/ha ([4]; Phaedon cochleariae, 144 h, 0.16 g/ha, 6 d, read-out: Kill in % after 6 d) is reported as 33% and the pest or weed control at 0.8 g/ha [1, 7] is reported as 50%. The pest or weed control at 20 g/ha [2, 11] was 0% and the pest or weed control at 0.8 g/ha [3, 10] was 0%.

In the case of CC1(C)C(C=C(Cl)Cl)C1C(=O)OC(C#N)c1ccc(F)c(Oc2ccccc2)c1 (stereo not drawn) [β-cyfluthrin, beta-cyfluthrin], the pest or weed control at 0.8 g/ha [4, 12] is reported as 33%, the pest or weed control at 0.16 g/ha [1, 13] is reported as 0% and the pest or weed control at 4 g/ha [2, 6] is reported as 0%. For the same compound, the pest or weed control at 0.032 g/ha [3, 14] was 0%.

Compound N#Cc1nn(-c2c(Cl)cc(C(F)(F)F)cc2Cl)c(N)c1[S+]([O-])C(F)(F)F (centres unmarked) [fipronil] has a pest or weed control at 0.8 g/ha [4, 9] of 50%, a pest or weed control at 4 g/ha [1, 5] of 0% and a pest or weed control at 100 g/ha [2, 15] of 0%.

For CCOP(=S)(OCC)Oc1nc(Cl)c(Cl)cc1Cl [chlorpyrifos], the “Kill in % after 6 d” value ([1]; 4 g/ha, 6 d) was 0% and the “Kill in % after 6 d” value ([2]; 100 g/ha, 6 d) was 0%.

In the case of emamectin benzoate, the “Kill in % after 2 d” value ([4]; 0.8 g/ha, 2 d) is reported as 50%, the “Kill in % after 2 d” value ([1]; 0.16 g/ha, 2 d) is reported as 0% and the “Kill in % after 2 d” value ([2]; 0.032 g/ha, 2 d) is reported as 0%. For the same compound, the “Kill in % after 6 d” value ([3]; 0.16 g/ha, single active compound, 6 d) was 0% and the “Kill in % after 1d” value ([3]; 0.8 g/ha, after 1 d) was 0%.

In the case of CC1(C)C(/C=C(\Cl)C(F)(F)F)C1C(=O)OC(C#N)c1cccc(Oc2ccccc2)c1 [L-cyhalothrin, lambda-cyhalothrin], the pest or weed control at 0.8 g/ha [4, 12] is reported as 33%, the pest or weed control at 0.16 g/ha [1, 13] is reported as 0% and the pest or weed control at 0.8 g/ha [1, 7] is reported as 50%. For the same compound, the pest or weed control at 0.8 g/ha ([2]; Tetranychus urticae, foliar, 144 h, 0.8 g/ha, 6 d, read-out: Kill in % after 6 d) was 0%, the pest or weed control at 4 g/ha [2, 6] was 80% and the pest or weed control at 0.032 g/ha [3, 14] was 0%.

In the case of c1cnc(-c2cccc(-c3cnc(-c4cccnc4)s3)n2)nc1 [compound of the formula (I-2)], the pest or weed control at 4 g/ha [4, 16] is reported as 0%, the pest or weed control at 20 g/ha [4, 16] is reported as 0% and the pest or weed control at 100 g/ha [4, 16] is reported as 0%. The pest or weed control at 500 g/ha [4, 16] was 0%, the pest or weed control at 4 g/ha [4, 17] was 0% and the pest or weed control at 20 g/ha [4, 17] was 0%. For the same compound, the pest or weed control at 100 g/ha [4, 17] was 0%, the pest or weed control at 500 g/ha [4, 17] was 0% and the pest or weed control at 20 g/ha [1, 18] was 0%. It also gave a pest or weed control at 100 g/ha [1, 18] of 0%, a pest or weed control at 500 g/ha [1, 18] of 0% and a pest or weed control at 20 g/ha [1, 7] of 0%. It also gave a pest or weed control at 100 g/ha [1, 7] of 0%, a pest or weed control at 500 g/ha [1, 7] of 0% and a pest or weed control at 4 g/ha [2, 11] of 0%. The pest or weed control at 20 g/ha [2, 11] was 0%, the pest or weed control at 100 g/ha [2, 8] was 0% and the pest or weed control at 500 g/ha [2, 11] was 0%. The pest or weed control at 4 g/ha [2, 6] was 0%, the pest or weed control at 500 g/ha [2, 6] was 0% and the pest or weed control at 4 g/ha [3, 14] was 0%. For the same compound, the pest or weed control at 20 g/ha [3, 14] was 0%, the pest or weed control at 100 g/ha [3, 14] was 0% and the pest or weed control at 500 g/ha [3, 14] was 0%.

Fc1cncc(-c2ncc(-c3cccc(-c4ncccn4)n3)s2)c1 [compound of the formula (I-3)] gave a pest or weed control at 4 g/ha [4, 16] of 0%, a pest or weed control at 20 g/ha [4, 16] of 0% and a pest or weed control at 100 g/ha [4, 16] of 0%. It also gave a pest or weed control at 500 g/ha [4, 16] of 0%, a pest or weed control at 4 g/ha [4, 17] of 0% and a pest or weed control at 100 g/ha [4, 17] of 0%. It also gave a pest or weed control at 500 g/ha [4, 17] of 0%, a pest or weed control at 500 g/ha [1, 18] of 0% and a pest or weed control at 20 g/ha [1, 7] of 0%. For the same compound, the pest or weed control at 100 g/ha [1, 7] was 0%, the pest or weed control at 500 g/ha [1, 7] was 0% and the pest or weed control at 4 g/ha [2, 11] was 0%. It also gave a pest or weed control at 20 g/ha [2, 11] of 0%, a pest or weed control at 500 g/ha [2, 11] of 0% and a pest or weed control at 4 g/ha [2, 6] of 0%. For the same compound, the pest or weed control at 20 g/ha [2, 6] was 0%, the pest or weed control at 100 g/ha [2, 15] was 0% and the pest or weed control at 500 g/ha [2, 6] was 0%. It also gave a pest or weed control at 4 g/ha [3, 14] of 0%, a pest or weed control at 20 g/ha [3, 14] of 0% and a pest or weed control at 100 g/ha [3, 14] of 0%. It also gave a pest or weed control at 500 g/ha [3, 14] of 0%, a pest or weed control at 4 g/ha [3, 19] of 70% and a pest or weed control at 20 g/ha [3, 19] of 70%.

With CC1(C)C(C=C(Cl)Cl)C1C(=O)OC(C#N)c1cccc(Oc2ccccc2)c1 (stereo not drawn) [alpha-cypermethrin] the pest or weed control at 4 g/ha [4, 17] was 67%, the pest or weed control at 0.8 g/ha [1, 7] was 33% and the pest or weed control at 0.16 g/ha ([3]; Myzus persicae, 24 h, 0.16 g/ha, after 1 d, read-out: Kill in % after 1d) was 0%.

COC(=O)N(C(=O)N1COC2(C(=O)OC)Cc3cc(Cl)ccc3C2=N1)c1ccc(OC(F)(F)F)cc1 (centres unmarked) [indoxacarb] showed a pest or weed control at 0.8 g/ha [4, 12] of 0% and a pest or weed control at 100 g/ha [1, 18] of 50%.

CC1(C)[C@H](C(=O)O[C@H](C#N)c2cccc(Oc3ccccc3)c2)[C@@H]1C=C(Br)Br [deltamethrin] gave a pest or weed control at 0.8 g/ha [4, 9] of 67%, a pest or weed control at 0.032 g/ha ([1]; Spodoptera frugiperda, 144 h, 0.032 g/ha, 6 d, read-out: Kill in % after 6 d) of 33% and a pest or weed control at 0.032 g/ha [3, 14] of 70%.
